Measurements from patent publication US20130052636A1, “RAPID DETECTION OF METABOLIC ACTIVITY” (SPECTRAL PLATFORMS, INC., priority 2011, published 2013).

Assays:
Format in all cases: cell-based
[1] = system: methicillin resistant S. aureus (MRSA); test: Raman marker peak height versus time in serum with MRSA (FIG. 6); details: representative traces 32 and 34, FIG. 6
Excerpt: As described above, if the iron sequestration process is monitored via Raman spectroscopy, then the test involves the collection of a series of Raman spectra over time. A hypothetical depiction of this collection for a non-iron marker is depicted in FIG. 5. The individual Raman spectra comprise one or more peaks such as […], and 23 that, in the case of iron sequestration, are ascribed either to Fe-Tr (21 and 22) or to the apo-Tr and/or serum lipoproteins (23). The peak heights from one of the Fe-Tr peaks (for instance, 22) are monitored over time, as depicted in FIG. 5. If viable pathogens are present, and are sequestering iron to afford Fe-Tr, then the iron-transferrin peaks decrease over time, as depicted by traces 33 and 34 in FIG. 6. On the other hand, if viable pathogens are not present, or if viable pathogens are present in the assay together with an effective antimicrobial agent, then the peak heights are nearly invariant with time.
With reference to FIGS. 5 and 6, if the lycopene consumption is monitored via Raman spectroscopy as an indicator of metabolic activity, then the test involves the collection of a series of Raman spectra over time. A representative depiction of this collection is depicted in FIG. 5. […]

HL60 human cells = test: Toxin detection: lycopene Raman peak in human serum, trypticase soy broth and HL60 cells; details: 4 μM, FIG. 24, 25
Excerpt: FIG. 24 depicts the results of one toxin detection experiment. A control sample comprising human serum (centrifuged from the blood collected from a healthy volunteer) was combined with trypticase soy broth and HL60 human cells. […] FIG. 25 plots the normalized intensity for the 1516 cm^−1 peak as a function of time for the rhizoxin containing sample.

S. aureus = test: Lycopene Raman peak (1516 cm^-1) slope versus time in inoculated serum, MIC estimate; details: S. aureus 10^5 cfu/mL; vancomycin 1, 5 and 20 μg/mL; FIG. 17
Experimental: FIGS. 17 & 18 illustrate the method by which a marker can be used to estimate the minimum inhibitory concentration MIC. FIG. 17 illustrates the Raman peak height at 1516 cm^−1 (which has been ascribed to lycopene) as a function of time for several samples. The samples include a serum sample that has been artificially inoculated with S. aureus to a concentration of 10^5 cfu/mL, and additional samples that also contain various concentrations of vancomycin (1, 5 and 20 μg/mL) as indicated in the legend.
FIG. 18 plots the slope of all the traces in FIG. 17, as a function of added vancomycin concentration. The dashed horizontal line corresponds to the slope of the sample without any added vancomycin, and the 3 data points correspond to vancomycin concentrations of 1, 5 and 20 μg/mL. The solid black line is a logarithmic fit of the 3 data points, and the MIC corresponds to the point at which the solid black line intersects the dashed line.

CC1(C)S[C@@H]2[C@H](NC(=O)[C@H](N)c3ccccc3)C(=O)N2[C@H]1C(=O)O [ampicillin]
effectiveness of dose by peak height versus time trace [1]: ineffective dose

CO[C@@H](/C(C)=C/C=C/C(C)=C/c1coc(C)n1)[C@@H](C)[C@@H]1C[C@H](O)[C@@]2(C)O[C@@H]2/C=C/[C@@H](C)[C@H]2C[C@H](CC(=O)O2)C[C@@H]2O[C@H]2C(=O)O1 [rhizoxin]
lycopene peak height (1516 cm^-1) over time (HL60 human cells): increases significantly at first, followed by a steady decline

CN[C@H](CC(C)C)C(=O)N[C@H]1C(=O)N[C@@H](CC(N)=O)C(=O)N[C@H]2C(=O)N[C@H]3C(=O)N[C@H](C(=O)N[C@H](C(=O)O)c4cc(O)cc(O)c4-c4cc3ccc4O)[C@H](O)c3ccc(c(Cl)c3)Oc3cc2cc(c3O[C@@H]2O[C@H](CO)[C@@H](O)[C@H](O)[C@H]2O[C@H]2C[C@](C)(N)[C@H](O)[C@H](C)O2)Oc2ccc(cc2Cl)[C@H]1O [vancomycin]
effectiveness of dose by peak height versus time trace [1]: effective dose | slope of lycopene 1516 cm^-1 peak intensity versus time (S. aureus): slope progressively decreases as more vancomycin is added
